Legend:
Assay type in all cases: cell-based
[1] = system: Saccharomyces bulderi ATCC MYA-402; test: Growth rate in YPD shake flasks (first secondary screen)
Experimental: (§1) For the first secondary screen, growth rates were measured in YPD media containing 0 g/L malate at pH 3.0 or 200 g/L malate at pH 2.85. Shake flasks were inoculated with biomass harvested from seed flasks grown overnight to an OD600 of 6 to 10. 250 mL baffled growth rate flasks (50 mL working volume) were inoculated to an OD600 of 0.1 and grown at 250 rpm and 30° C. Samples were taken throughout the time course of the assay and analyzed for biomass growth via OD600. The resulting OD600 data was plotted and growth rates were established.
(§2) The same procedures were utilized to screen, rate, and score the original 91 wild-type yeast strains from the primary screen with media containing 0, 30, 45, and 60 g/L lactic acid at pH 3.0 (˜80% free acid). Due to difficulties in properly scoring some very weak growth that occasionally occurred at 60 g/L, 20 strains were re-tested in the primary screen. Of these 20 strains, eight were eliminated due to very slow growth relative to the rest of the test group. The remaining 12 strains were advanced into secondary screening. The secondary screen for lactic acid was the same as that described above for malate, except for changes in concentrations and pH values. Growth rates were measured at 0 g/L lactic acid, pH 3.0 and 50 g/L lactic acid, pH 2.85, and glucose consumption rates were measured in the presence of 50 g/L lactic acid, pH 2.85. Normalized values and weighted and summed scores were calculated for each strain as described above for malate.

Saccharomyces javensis [2] = test: as above
Experimental: as §1, §2

[3] = system: Saccharomyces bulderi ATCC MYA-404; test: as above
Experimental: as §1, §2

[4] = system: Candida sorbosivorans ATCC 38619; test: as above; conditions: Candida sorosivorans, scale 0 to 1
Experimental: as §1, §2

[5] = system: Saccharomyces bayanus ATCC 90739; test: as above
Experimental: as §1, §2

[6] = system: Candida zemplinina PYCC 04-501; test: as above
Experimental: as §1, §2

[7] = system: Candida milleri ATCC 60592; test: as above
Experimental: as §1, §2

[8] = system: Candida lambica ATCC 38617; test: as above
Experimental: as §1, §2

[9] = system: Issatchenkia orientalis CD1822; test: as above
Experimental: as §1, §2

Candida geochares [10] = test: as above
Experimental: as §1, §2

[11] = system: Issatchenkia orientalis ATCC PTA-6658; test: as above
Experimental: as §1, §2

[12] = system: Kodamaea ohmeri ATCC 20282; test: as above
Experimental: as §1, §2

[13] = system: Issatchenkia orientalis ATCC 24210; test: as above
Experimental: as §1, §2

[14] = system: Saccharomyces bulderi ATCC MYA-402; test: Glucose consumption rate in YPD shake flasks (second secondary screen); conditions: 50 g/L lactic acid, pH 2.85, scale 0 to 1
Experimental: (§3) For the second secondary screen, glucose consumption was measured in YPD media containing 0 g/L malate at pH 3.0 or 200 g/L malate at pH 2.85. Shake flasks were inoculated with biomass harvested from seed flasks grown overnight to an OD600 of 6 to 10. 250 mL baffled glycolytic assay flasks (50 mL working volume) were inoculated to an OD600 of 0.1 and grown at 250 RPM and 30° C. Samples were taken throughout the time course of the assay and analyzed for glucose consumption using a 2700 Biochemistry Analyzer (Yellow Springs Instruments, YSI). The resulting data was plotted and glucose consumption rates were established.
as §2

Saccharomyces javensis [15] = test: as above; conditions: 50 g/L lactic acid, pH 2.85, scale 0 to 1
Experimental: as §3, §2

[16] = system: Saccharomyces bulderi ATCC MYA-404; test: as above; conditions: 50 g/L lactic acid, pH 2.85, scale 0 to 1
Experimental: as §3, §2

[17] = system: Candida sorbosivorans ATCC 38619; test: as above; conditions: Candida sorosivorans; 50 g/L lactic acid, pH 2.85; scale 0 to 1
Experimental: as §3, §2

[18] = system: Saccharomyces bayanus ATCC 90739; test: as above; conditions: 50 g/L lactic acid, pH 2.85, scale 0 to 1
Experimental: as §3, §2

[19] = system: Candida zemplinina PYCC 04-501; test: as above; conditions: 50 g/L lactic acid, pH 2.85, scale 0 to 1
Experimental: as §3, §2

[20] = system: Candida milleri ATCC 60592; test: as above; conditions: 50 g/L lactic acid, pH 2.85, scale 0 to 1
Experimental: as §3, §2

[21] = system: Candida lambica ATCC 38617; test: as above; conditions: 50 g/L lactic acid, pH 2.85, scale 0 to 1
Experimental: as §3, §2

[22] = system: Issatchenkia orientalis CD1822; test: as above; conditions: 50 g/L lactic acid, pH 2.85, scale 0 to 1
Experimental: as §3, §2

Candida geochares [23] = test: as above; conditions: 50 g/L lactic acid, pH 2.85, scale 0 to 1
Experimental: as §3, §2

[24] = system: Issatchenkia orientalis ATCC PTA-6658; test: as above; conditions: 50 g/L lactic acid, pH 2.85, scale 0 to 1
Experimental: as §3, §2

[25] = system: Kodamaea ohmeri ATCC 20282; test: as above; conditions: 50 g/L lactic acid, pH 2.85, scale 0 to 1
Experimental: as §3, §2

[26] = system: Issatchenkia orientalis ATCC 24210; test: as above; conditions: 50 g/L lactic acid, pH 2.85, scale 0 to 1
Experimental: as §3, §2

Structure (SMILES): CC(O)C(=O)O (stereo not drawn) [lactic acid]
- Normalized grade: Growth rate slope ([1]; lactic acid, scale 0 to 1): 0.23
- Normalized grade: Growth rate 50 g/L lactic acid ([1]; pH 2.85, scale 0 to 1): 0.5
- Normalized grade: Growth rate slope (Saccharomyces javensis [2]; lactic acid, scale 0 to 1): 0.68
- Normalized grade: Growth rate 50 g/L lactic acid (Saccharomyces javensis [2]; pH 2.85, scale 0 to 1): 0.11
- Normalized grade: Growth rate slope ([3]; lactic acid, scale 0 to 1): 0.45
- Normalized grade: Growth rate 50 g/L lactic acid ([3]; pH 2.85, scale 0 to 1): 0.47
- Normalized grade: Growth rate slope ([4]; lactic acid): 0.95
- Normalized grade: Growth rate 50 g/L lactic acid ([4]; pH 2.85): 0.28
- Normalized grade: Growth rate slope ([5]; lactic acid, scale 0 to 1): 0.91
- Normalized grade: Growth rate 50 g/L lactic acid ([5]; pH 2.85, scale 0 to 1): 0.08
- Normalized grade: Growth rate slope ([6]; lactic acid, scale 0 to 1): 0.95
- Normalized grade: Growth rate 50 g/L lactic acid ([6]; pH 2.85, scale 0 to 1): 0.22
- Normalized grade: Growth rate slope ([7]; lactic acid, scale 0 to 1): 0.64
- Normalized grade: Growth rate 50 g/L lactic acid ([7]; pH 2.85, scale 0 to 1): 0
- Normalized grade: Growth rate slope ([8]; lactic acid, scale 0 to 1): 1
- Normalized grade: Growth rate 50 g/L lactic acid ([8]; pH 2.85, scale 0 to 1): 0.92
- Normalized grade: Growth rate slope ([9]; lactic acid, scale 0 to 1): 0.86
- Normalized grade: Growth rate 50 g/L lactic acid ([9]; pH 2.85, scale 0 to 1): 1.00
- Normalized grade: Growth rate slope (Candida geochares [10]; lactic acid, scale 0 to 1): 0.27
- Normalized grade: Growth rate 50 g/L lactic acid (Candida geochares [10]; pH 2.85, scale 0 to 1): 0.17
- Normalized grade: Growth rate slope ([11]; lactic acid, scale 0 to 1): 0.95
- Normalized grade: Growth rate 50 g/L lactic acid ([11]; pH 2.85, scale 0 to 1): 0.94
- Normalized grade: Growth rate slope ([12]; lactic acid, scale 0 to 1): 0
- Normalized grade: Growth rate 50 g/L lactic acid ([12]; pH 2.85, scale 0 to 1): 0.42
- Normalized grade: Growth rate slope ([13]; lactic acid, scale 0 to 1): 0.73
- Normalized grade: Growth rate 50 g/L lactic acid ([13]; pH 2.85, scale 0 to 1): 0.89
- Normalized grade: Glycolic rate [14]: 1
- Normalized grade: Glycolic rate (Saccharomyces javensis [15]): 0
- Normalized grade: Glycolic rate [16]: 1
- Normalized grade: Glycolic rate [17]: 0.59
- Normalized grade: Glycolic rate [18]: 0.96
- Normalized grade: Glycolic rate [19]: 1
- Normalized grade: Glycolic rate [20]: 0.92
- Normalized grade: Glycolic rate [21]: 1
- Normalized grade: Glycolic rate [22]: 1
- Normalized grade: Glycolic rate (Candida geochares [23]): 0.69
- Normalized grade: Glycolic rate [24]: 1
- Normalized grade: Glycolic rate [25]: 0.76
- Normalized grade: Glycolic rate [26]: 1

— patent US20130309736A1, “COMPOSITIONS AND METHODS FOR MALATE AND FUMARATE PRODUCTION” (CARGILL, INCORPORATED, priority 2011, published 2013)
